Measured values published in ChEMBL document CHEMBL4002623, “Synthesis and in vitro activity of dicationic indolyl diphenyl ethers as novel potent antibiotic agents against drug-resistant bacteria” (Bioorg Med Chem Lett, 2017).
In brackets after ≈: the same amount, converted by molar mass.

Experiments:
Staphylococcus aureus [1] = assay: Antibacterial activity against methicillin-sensitive Staphylococcus aureus ATCC 29213 by agar dilution method; type: functional
Staphylococcus aureus [2] = assay: Antibacterial activity against methicillin-resistant Staphylococcus aureus 09-13 by agar dilution method; type: functional
[3] = test system: Staphylococcus epidermidis; assay: Antibacterial activity against methicillin-sensitive Staphylococcus epidermidis ATCC 12228 by agar dilution method; type: functional
[4] = test system: Staphylococcus epidermidis; assay: Antibacterial activity against methicillin-resistant Staphylococcus epidermidis 09-3 by agar dilution method; type: functional
Enterococcus faecalis [5] = assay: Antibacterial activity against vancomycin-sensitive Enterococcus faecalis ATCC 29212 by agar dilution method; type: functional
Enterococcus faecalis [6] = assay: Antibacterial activity against vancomycin-resistant Enterococcus faecalis 09-9 by agar dilution method; type: functional
Enterococcus faecium [7] = assay: Antibacterial activity against vancomycin-resistant Enterococcus faecium ATCC 700221 by agar dilution method; type: functional
Escherichia coli [8] = assay: Antibacterial activity against extended-spectrum beta-lactamase-negative Escherichia coli ATCC 25922 by agar dilution method; type: functional
Escherichia coli [9] = assay: Antibacterial activity against extended-spectrum beta-lactamase-positive Escherichia coli 09-1 by agar dilution method; type: functional
Klebsiella pneumoniae [10] = assay: Antibacterial activity against extended-spectrum beta-lactamase-negative Klebsiella pneumoniae 7 by agar dilution method; type: functional
Klebsiella pneumoniae [11] = assay: Antibacterial activity against extended-spectrum beta-lactamase-positive Klebsiella pneumoniae 09-25 by agar dilution method; type: functional
Klebsiella pneumoniae [12] = assay: Antibacterial activity against Klebsiella pneumoniae ATCC BAA-2146 expressing NDM-1 by agar dilution method; type: functional
[13] = Cytotoxicity against HEK293T cells after 48 hrs by MTS assay; type: cell-based, HEK-293T; conditions: human
Enterococcus faecium [14] = assay: Antibacterial activity against vancomycin-sensitive Enterococcus faecium 09-10 by agar dilution method; type: functional
Staphylococcus aureus [15] = assay: Antibacterial activity against methicillin-resistant Staphylococcus aureus ATCC 33591 by agar dilution method; type: functional
Staphylococcus aureus [16] = assay: Antibacterial activity against methicillin-sensitive Staphylococcus aureus 15 by agar dilution method; type: functional
Staphylococcus aureus [17] = assay: Antibacterial activity against methicillin-sensitive Staphylococcus aureus 09-6 by agar dilution method; type: functional
[18] = test system: Staphylococcus epidermidis; assay: Antibacterial activity against methicillin-sensitive Staphylococcus epidermidis 09-9 by agar dilution method; type: functional
Enterococcus faecalis [19] = assay: Antibacterial activity against vancomycin-resistant Enterococcus faecalis ATCC 51299 by agar dilution method; type: functional
Enterococcus faecalis [20] = assay: Antibacterial activity against vancomycin-sensitive Enterococcus faecalis 09-8 by agar dilution method; type: functional
Enterococcus faecium [21] = assay: Antibacterial activity against vancomycin-resistant Enterococcus faecium 05-8 by agar dilution method; type: functional
Escherichia coli [22] = assay: Antibacterial activity against extended-spectrum beta-lactamase-negative Escherichia coli 1515 by agar dilution method; type: functional
Escherichia coli [23] = assay: Antibacterial activity against extended-spectrum beta-lactamase-negative Escherichia coli 09-20 by agar dilution method; type: functional
Klebsiella pneumoniae [24] = assay: Antibacterial activity against extended-spectrum beta-lactamase-positive Klebsiella pneumoniae ATCC 700603 by agar dilution method; type: functional
Klebsiella pneumoniae [25] = assay: Antibacterial activity against extended-spectrum beta-lactamase-negative Klebsiella pneumoniae 09-8 by agar dilution method; type: functional
Pseudomonas aeruginosa [26] = assay: Antibacterial activity against Pseudomonas aeruginosa ATCC 27853 by agar dilution method; type: functional
Pseudomonas aeruginosa [27] = assay: Antibacterial activity against Pseudomonas aeruginosa PAO1 by agar dilution method; type: functional
Pseudomonas aeruginosa [28] = assay: Antibacterial activity against Pseudomonas aeruginosa 09-14 by agar dilution method; type: functional
[29] = test system: Acinetobacter calcoaceticus; assay: Antibacterial activity against Acinetobacter calcoaceticus ATCC 19606 by agar dilution method; type: functional
Enterobacter cloacae = assay: Antibacterial activity against Enterobacter cloacae 45301 by agar dilution method; type: functional
Klebsiella aerogenes = assay: Antibacterial activity against Enterobacter aerogenes 45102 by agar dilution method; type: functional
Serratia marcescens = assay: Antibacterial activity against Serratia marcescens 41002 by agar dilution method; type: functional
Morganella morganii = assay: Antibacterial activity against Morganella morganii ATCC 25830 by agar dilution method; type: functional
Providencia rettgeri = assay: Antibacterial activity against Providencia rettgeri ATCC 31052 by agar dilution method; type: functional
Proteus vulgaris = assay: Antibacterial activity against Proteus vulgaris ATCC 29905 by agar dilution method; type: functional
Proteus mirabilis = assay: Antibacterial activity against Proteus mirabilis 09-1 by agar dilution method; type: functional
Salmonella typhi = assay: Antibacterial activity against Salmonella typhi H901 by agar dilution method; type: functional, Salmonella enterica subsp. enterica serovar Typhi; conditions: Salmonella enterica
Citrobacter freundii = assay: Antibacterial activity against Citrobacter freundii ATCC 43864 by agar dilution method; type: functional
Staphylococcus aureus [30] = assay: Potency index, ratio of levofloxacin MIC to test compound MIC for methicillin-resistant Staphylococcus aureus 09-13; type: functional
[31] = test system: Staphylococcus epidermidis; assay: Potency index, ratio of levofloxacin MIC to test compound MIC for methicillin-resistant Staphylococcus epidermidis 09-3; type: functional
Enterococcus faecalis [32] = assay: Potency index, ratio of levofloxacin MIC to test compound MIC for vancomycin-resistant Enterococcus faecalis 09-9; type: functional
Enterococcus faecium [33] = assay: Potency index, ratio of levofloxacin MIC to test compound MIC for vancomycin-resistant Enterococcus faecium ATCC 700221; type: functional

N=C(c1ccc2cc(-c3ccc(Oc4ccc(-c5cc6ccc(C(=N)N7CCC7)cc6[nH]5)cc4)cc3)[nH]c2c1)N1CCC1
MIC (Staphylococcus aureus [1]): 2 µg/mL (≈ 3.54 µM)
MIC (Staphylococcus aureus [2]): 0.5 µg/mL (≈ 0.885 µM)
MIC [3]: 0.125 µg/mL (≈ 0.221 µM)
MIC [4]: 0.5 µg/mL (≈ 0.885 µM)
MIC (Enterococcus faecalis [5]): 2 µg/mL (≈ 3.54 µM)
MIC (Enterococcus faecalis [6]): 8 µg/mL (≈ 14.2 µM)
MIC (Enterococcus faecium [7]): 2 µg/mL (≈ 3.54 µM)
MIC (Escherichia coli [8]): 16 µg/mL (≈ 28.3 µM)
MIC (Escherichia coli [9]): 64 µg/mL (≈ 113 µM)
MIC (Klebsiella pneumoniae [10]): 64 µg/mL (≈ 113 µM)
MIC (Klebsiella pneumoniae [11]): 64 to 128 µg/mL (≈ 113 to 227 µM)
MIC (Klebsiella pneumoniae [12]): 64 to 128 µg/mL (≈ 113 to 227 µM)
CC50 at 48 h [13]: 21.6 µg/mL (≈ 38.3 µM)
MIC (Enterococcus faecium [14]): 8 µg/mL (≈ 14.2 µM)
MIC (Staphylococcus aureus [15]): 0.5 µg/mL (≈ 0.885 µM)
MIC (Staphylococcus aureus [16]): 0.5 µg/mL (≈ 0.885 µM)
MIC (Staphylococcus aureus [17]): 2 µg/mL (≈ 3.54 µM)
MIC [18]: 0.5 µg/mL (≈ 0.885 µM)
MIC (Enterococcus faecalis [19]): 2 µg/mL (≈ 3.54 µM)
MIC (Enterococcus faecalis [20]): 2 µg/mL (≈ 3.54 µM)
MIC (Enterococcus faecium [21]): 2 µg/mL (≈ 3.54 µM)
MIC (Escherichia coli [22]): 64 µg/mL (≈ 113 µM)
MIC (Escherichia coli [23]): 64 µg/mL (≈ 113 µM)
MIC (Klebsiella pneumoniae [24]): 64 µg/mL (≈ 113 µM)
MIC (Klebsiella pneumoniae [25]): 64 µg/mL (≈ 113 µM)
MIC (Pseudomonas aeruginosa [26]): 128 µg/mL (≈ 227 µM)
MIC (Pseudomonas aeruginosa [27]): > 128 µg/mL
MIC (Pseudomonas aeruginosa [28]): > 128 µg/mL
MIC [29]: > 128 µg/mL
MIC (Enterobacter cloacae): > 128 µg/mL
MIC (Klebsiella aerogenes): 64 µg/mL (≈ 113 µM)
MIC (Serratia marcescens): 128 µg/mL (≈ 227 µM)
MIC (Morganella morganii): 8 µg/mL (≈ 14.2 µM)
MIC (Providencia rettgeri): > 128 µg/mL
MIC (Proteus vulgaris): 128 µg/mL (≈ 227 µM)
MIC (Proteus mirabilis): 128 µg/mL (≈ 227 µM)
MIC (Salmonella typhi): 32 µg/mL (≈ 56.7 µM)
MIC (Citrobacter freundii): 64 µg/mL (≈ 113 µM)
Ratio (Staphylococcus aureus [30]): 4 - 8
Ratio [31]: 4 - 8
Ratio (Enterococcus faecalis [32]): 16 - 64
Ratio (Enterococcus faecium [33]): 16 - 64
